Consider one compound from US20200299783A1 (Board of Regents, The University of Texas System, priority 2019, published 2020).

What all share (format): cell-based, human
Assay [1] deals with ibrutinib-resistant MCL cell lines (Maver-1 and Z-138) versus ibrutinib-sensitive (JeKo-1 and Mino). Nature of the assay: Glutamine uptake in MCL cell lines. As to conditions: 20 nM for 24 hours; resistant compared with sensitive cells; FIG. 11D. The method, then:
(§1) MCL cell lines were seeded at 1-2×10^6 cells/well in triplicate in six-well plates and incubated overnight. Next, the media were replaced with 3 mL complete RPMI-1640 medium with or without inhibitors. […] and analyzed for their glucose, glutamine and lactate content using the Glucose, Glutamine and Lactate Colorimetric Assay Kits (BioVision), respectively, according to the manufacturer's instructions. Glucose or glutamine consumption was extrapolated by subtracting the measured glucose concentrations in the media from the initial concentrations (11.1 mM glucose; 2 mM glutamine). Intracellular ATP contents from above treated cells was determined using ATP Colorimetric Assay Kit (Biovision) as outlined in the manufacturer's protocol. […]

The subject of assay [2] is ibrutinib-resistant (Maver-1 and Z-138) MCL cell lines. Nature of the assay: Intracellular ATP, ibrutinib-resistant MCL cell lines. The settings on record: 20 nM for 24 hours; 0 nM vs 20 nM p<0.0001; FIG. 11C. On the procedure: as §1
Assay [3] concerns ibrutinib-resistant MCL cell lines Maver-1 and Z-138. Nature of the assay: ROS levels by flow cytometry, ibrutinib-resistant MCL cell lines. The settings on record: Maver-1 and Z-138; IACS-010759 25 nM (text; FIG. 5E legend 20 nM) and/or 5 μM BPTES, 24 hours. The method, then:
Mitochondria membrane potential, mitochondria mass, ROS, and apoptosis analysis. MCL cells were seeded and cultured overnight before treatment to reach log phase. Respective cell lines were plated at 2×10^6 cells/well in 6-well plates in phenol-red and pyruvate-free DMEM assay medium containing 5 mM glucose (Sigma), 2 mM GlutaMAX (Gibco, ThermoFisher Scientific), and 5% dialyzed FCS (Gibco). Vehicle, IACS-0107059 (20 nM), or (1-5 μM) BPTES was added and replenished every day until the indicated time points. ROS and mitochondria membrane potential were evaluated 24 hours after treatment. […] TMRE dye fluorescence retained in the cells was detected by flow cytometry with excitation and emission of 548/574 nm. Data were analyzed with NovoExpress (ACEA Biosciences, San Diego, Calif., USA) or FlowJo10 (Tree Star, Ashland, Oreg., USA). To measure ROS levels, treated cells were harvested, stained with […] CM-H2DCF-DA (C6827, Molecular Probes, Invitrogen) in PBS for 30 min at 37° C., washed twice with PBS, and analyzed in a flow cytometer (FACS Caliber, BD Biosciences) by recording the green fluorescence of oxidized DCF. The mean fluorescence of 10,000 analyzed cells (corrected for auto fluorescence) was taken as a readout for the intracellular ROS load.

The test system of assay [4] is Z-138 and Maver-1 MCL cell lines. The assay can be described thus: Immunoblotting of cleaved Caspase-7 and PARP. As to conditions: 20 nM IACS-010759 and/or 5 μM BPTES for 72 hours; FIG. 5G. On the procedure:
Cells were cultured with single agent or combination therapy in the presence or absence of caspase inhibitors. Cells were harvested, washed twice with cold PBS, and lysed with lysis buffer (Cell Signaling, Danvers, Mass., USA). Cell lysates were kept on ice for 30 min and centrifuged at 13,000 g for 10 min at 4° C. For the detection of cytosolic cytochrome c, the Cytosol Fractionation Kit (BioVision, Milpitas, Calif., USA) was utilized to acquire cytosolic fractions according to the manufacturer's instructions. Supernatants were collected, and the protein content of each fraction was determined using a Bio-Rad Bradford assay (Bio-Rad, Hercules, Calif., USA). Samples were boiled in loading buffer and separated by 10% SDS-PAGE. After electrophoresis, the proteins were transferred onto a nitrocellulose membrane (Bio-Rad), which was incubated with blocking solution (5% nonfat dry milk in PBS containing 0.05% Tween-20) for 2 h and immunoblotted with SLC16A1 (Novus, St. Louis, Mo., USA), SLC1A5, BTK, and p16INK4a, and GAPDH (Cell Signaling, Danvers, Mass., USA) antibodies. The membrane was finally visualized by incubating the membrane with a chemiluminescence Western blot kit (Pierce Biotechnology, Rockford, Ill., USA).

As to `Cc1nc(-c2nc(-c3ccc(OC(F)(F)F)cc3)no2)nn1Cc1cccc(N2CCC(S(C)(=O)=O)CC2)c1` [IACS-010759], in assay [1], the glutamine uptake inhibition entry was “greater glutamine uptake inhibition”. Also, in assay [2], the “ATP production (intracellular ATP levels)” value is reported as “decreased”. The ROS production entry in assay [3] is “induced ROS production”. Moreover, in assay [4], the “caspase 7 activation and PARP cleavage” value was “induced caspase 7 activation and PARP cleavage”.
